Data on 9 compounds can be found in ChEMBL document CHEMBL1150396, “New PPARgamma ligands based on 2-hydroxy-1,4-naphthoquinone: computer-aided design, synthesis, and receptor-binding studies” (Bioorg Med Chem Lett, 2008).

The target of one assay is T1, Peroxisome proliferator-activated receptor gamma (Rattus norvegicus) (UniProt O88275).
T1 sequence (whole entry): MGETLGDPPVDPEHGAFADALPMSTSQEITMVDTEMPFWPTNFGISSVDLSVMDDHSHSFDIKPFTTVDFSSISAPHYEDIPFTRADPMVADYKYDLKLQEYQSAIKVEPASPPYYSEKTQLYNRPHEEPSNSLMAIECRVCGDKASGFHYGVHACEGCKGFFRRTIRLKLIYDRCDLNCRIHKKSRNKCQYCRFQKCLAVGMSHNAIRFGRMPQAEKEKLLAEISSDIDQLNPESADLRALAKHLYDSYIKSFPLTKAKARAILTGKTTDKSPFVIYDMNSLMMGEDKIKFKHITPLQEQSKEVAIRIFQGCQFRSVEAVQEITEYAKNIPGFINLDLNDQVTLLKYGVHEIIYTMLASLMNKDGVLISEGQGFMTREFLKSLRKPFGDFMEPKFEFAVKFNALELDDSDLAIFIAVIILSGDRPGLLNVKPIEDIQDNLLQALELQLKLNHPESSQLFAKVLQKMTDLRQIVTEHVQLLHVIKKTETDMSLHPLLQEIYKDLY
Nature of the assay: Displacement of [3H]rosigliatzone from PPARgamma in rat adipocytes at 0.1 uM. The class given is cell-based. On the technique in general: Loss of bound radioactivity is the signal in a displacement assay; it reports binding, not function.
On to `O=C1C(O)=C(Cc2ccc(OCCOc3ccc4c(c3)CCC4)cc2)C(=O)c2ccccc21`, for which the Activity was less than 20%.

For `Cc1ccc(OCCOc2ccc(CC3=C(O)C(=O)c4ccccc4C3=O)cc2)cc1`, the Activity is less than 20%.

Turning to `O=C1C(O)=C(Cc2ccc(OCCOc3ccc(Cl)cc3)cc2)C(=O)c2ccccc21`, the Activity is less than 20%.

In turn, `O=C1C(O)=C(Cc2ccc(OCCOc3cccc4ccccc34)cc2)C(=O)c2ccccc21` returned an Activity of less than 20%.

Another assay concerns the target T2, Peroxisome proliferator-activated receptor gamma (Rattus norvegicus, UniProt O88275).
T2 sequence (O88275 whole entry): T1 sequence (whole entry)
Kind of assay: Displacement of [3H]rosigliatzone from PPARgamma in rat adipocytes. The class given is cell-based.
With `CCc1ccc(CCOc2ccc(CC3SC(=O)NC3=O)cc2)nc1` (centres undefined) [PIOGLITAZONE], the IC50 (as a rule, the point on the concentration scale where inhibition reaches its midpoint) came out at 700 nM.

`O=C1C(O)=C(Cc2ccc(OCc3ccccc3F)cc2)C(=O)c2ccccc21` showed an IC50 of 200 nM.

`O=C1C(O)=C(Cc2ccc(OCc3ccccc3)cc2)C(=O)c2ccccc21` showed a 50% inhibitory concentration (IC50) of 3600 nM.

`N#Cc1ccc(OCCOc2ccc(CC3=C(O)C(=O)c4ccccc4C3=O)cc2)cc1` yielded an IC50 of 1900 nM.

`COc1ccc(OCCOc2ccc(CC3=C(O)C(=O)c4ccccc4C3=O)cc2)cc1`: the IC50 is 56200 nM.
